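Compound exposure: 48 hours, 5 concentrations, 96-well plates. GI50 is the concentration that inhibits growth by half. TGI: concentration producing complete growth inhibition.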
How the values were obtained:
Experiment in all cases: NCI anticancer screen, dose series, 48 h
[1] = tested on: SK-OV-3 ovarian
[2] = tested on: SK-MEL-5 melanoma
[3] = tested on: RPMI-8226 leukemia
[4] = tested on: HT29 colon
[5] = tested on: A549 NSCLC
[6] = tested on: U251 CNS
[7] = tested on: KM12 colon
[8] = tested on: NCI-H226 lung
[9] = tested on: M14 melanoma
[10] = tested on: MOLT-4 leukemia

SMILES | GI50 [1] [µM] | TGI [1] [µM] | GI50 [2] [µM] | TGI [2] [µM] | GI50 [3] [µM] | TGI [3] [µM] | GI50 [4] [µM] | TGI [4] [µM] | GI50 [5] [µM] | TGI [5] [µM] | GI50 [6] [µM] | TGI [6] [µM] | GI50 [7] [µM] | TGI [7] [µM] | GI50 [8] [µM] | TGI [8] [µM] | GI50 [9] [µM] | TGI [9] [µM] | GI50 [10] [µM] | TGI [10] [µM]
CN(C)CCOc1nc2ccccc2c2c1-c1ccc(Cl)cc1C2=O | 1.76 | > 37 | 1.36 | 2.67 | 0.617 | 2.35 | 0.453 | 1.63 | 0.458 | 5.25 | 0.38 | 1.59 | 0.441 | 1.57 | 0.735 | 8.65 | 1.12 | 2.72 | 0.302 | 1.51
CCN(CC)c1ccc2nc3c4ccccc4c(=NC(=O)c4ccccc4-c4c5ccc(N(CC)CC)cc5[o+]c5cc(N(CC)CC)ccc45)cc-3oc2c1 | 12.3 | 26.6 | 1.26 | 2.68 | 0.722 | 4.2 | 2.73 | > 32.2 | 1.83 | 5.08 | 2.33 | 8.83 | 2.25 | 7.94 | 15.4 | 38.8 | 2.47 |  | 1.81 | > 100
CCc1ccccc1-n1c(N)c(C#N)c(-c2ccc(OC)c(OC)c2)c(C#N)c1=O | 17.7 | 36.6 | 32.7 | > 100 | 43.1 | > 100 | 41 | > 100 | 34.4 | > 100 | 16.1 | 29.8 | 16.9 | 34.6 | 17.1 | 41.8 | 19.7 | 56 | > 100 | > 100
COc1ccc(NC(=O)O[C@H]2[C@H](O[C@H]3[C@@H](O)COC(O[C@H]4C[C@H]5[C@@H]6CC=C7C[C@@H](O)CC[C@]7(C)[C@H]6CC[C@]5(C)[C@H]4[C@H](C)C(=O)CCC(C)C)[C@@H]3OC(C)=O)OC[C@@H](O)[C@@H]2O)cc1 (some centres not stated) | 0.015 | 3.71 | < 0.01 | 0.0114 | < 0.01 | 0.879 | 0.0242 | 15.5 | < 0.01 | 20.5 | < 0.01 | 12.2 | 0.0323 | 16.4 | 0.0725 | 17.3 | < 0.01 | 0.0203 | < 0.01 | 0.34
COc1cc(C2C(C#N)=C(N)Oc3cc4c(cc32)OCO4)cc2c1OCO2 (configuration not stated) | 0.439 |  | 0.101 | 14.3 | 0.406 | > 71 | 0.324 | > 59.7 | 0.384 | > 100 | 0.314 | > 38 | 0.206 | > 46.6 | 0.273 | 4.59 | 0.418 | > 100 | 0.935 | 49.5
CCOC(=O)CNC(=O)C(CSC(=O)N(C)O)NC(=O)CCC(N)C(=O)O (configuration not stated) | > 2000 | > 2000 | > 2000 | > 2000 | > 2000 | > 2000 | > 2000 |  | > 2000 | > 2000 | > 2000 | > 2000 | > 2000 | > 2000 | > 2000 | > 2000 | > 2000 | > 2000 | > 2000 | > 2000
CP(C)C.[Ag][I] |  | > 100 |  | 46.4 |  | > 100 |  | > 100 |  | > 100 |  | > 100 |  | > 100 |  | > 100 |  | > 100 |  | > 100
CC(=O)N[C@@H](Cc1ccc(OP(=O)(O)O)cc1)C(=O)N[C@H]1CCC(=O)N2CCC[C@@H](C(=O)NCc3ccc(O)cc3)N2C1=O | > 25 | > 25 | > 25 | > 25 | > 25 | > 25 | > 25 | > 25 | > 25 | > 25 | > 25 | > 25 | > 25 | > 25 | > 25 | > 25 | > 25 | > 25 | > 25 | > 25
N#CSCC(=O)c1ccc(Cl)cc1 | 4.35 | 30.8 | 2.31 | 14.7 | 1.44 | 4.65 | 3.59 | 19.7 | 9.14 | > 49.7 | 3.23 | 16.6 | 2.59 | 7.33 | 10.8 | 33.3 | 3.4 | 15.1 | 1.03 | > 33.1

— PubChem BioAssay (NCI)
